The values that follow come from ChEMBL document CHEMBL4602643, “Anti-inflammatory activities of isopimara-8(14),-15-diene diterpenoids and mode of action of kaempulchraols P and Q from Kaempferia pulchra rhizomes” (Bioorg Med Chem Lett, 2020).

The source made the active and inactive calls. The calls are words filed in the database; no cut-off is given here. Where only a bound is given, the exact number is not on record here.

In series [1] the test system is RAW264.7. As to the kind of experiment: Anti-inflammatory activity in mouse RAW264.7 cells assessed as inhibition of LPS-induced NO production. Type of series: functional, cell-based.
Series [2] relates to RAW264.7. Kind of series: Anti-inflammatory activity in mouse RAW264.7 cells assessed as inhibition of LPS-induced NO production at 50 uM relative to control. Type of series: functional.
The nature of series [3]: Cytotoxicity against mouse RAW264.7 cells assessed as cell survival at 50 uM. Type of series: cell-based. Conditions: read-out: Activity.
A short description of series [4]: Cytotoxicity against mouse RAW264.7 cells assessed as cell survival at 10 uM. Type of series: cell-based. The settings on record: read-out: Activity.
For series [5], the system named is RAW264.7. As to the kind of experiment: Anti-inflammatory activity in mouse RAW264.7 cells assessed as inhibition of LPS-induced NO production at 10 uM relative to control. Type of series: functional.
In series [6] the test system is RAW264.7. Kind of series: Anti-inflammatory activity in mouse RAW264.7 cells assessed as inhibition of LPS-induced NO production at 100 uM relative to control. Type of series: functional.
For series [7], the system named is RAW264.7. As to the kind of experiment: Anti-inflammatory activity in mouse RAW264.7 cells assessed as inhibition of LPS-induced NO production at 5 uM relative to control. Type of series: functional.
In series [8] the test system is RAW264.7. Kind of series: Cytotoxicity against mouse RAW264.7 cells assessed as reduction in cell viability. It is filed as cell-based.
The nature of series [9]: Cytotoxicity against mouse RAW264.7 cells assessed as cell survival at 5 uM. Type of series: cell-based. Conditions: read-out: Activity.
Series [10] can be described thus: Cytotoxicity against mouse RAW264.7 cells assessed as cell survival at 100 uM. It is filed as cell-based. Conditions: read-out: Activity.
For series [11], the system named is RAW264.7. Kind of series: Cytotoxicity against mouse RAW264.7 cells expressing luciferase reporter gene assessed as cell survival at 5 to 25 uM. It is filed as cell-based. Conditions: raw264.7, 25 µM.
The test system of series [12] is RAW264.7. As to the kind of experiment: Inhibition of LPS-induced IL-6 production in mouse RAW264.7 cells at 25 uM by ELISA. It is filed as functional, cell-based.
Series [13] has as its system RAW264.7. As to the kind of experiment: Inhibition of NF-kappaB activation in mouse RAW264.7 cells expressing luciferase gene at 5 to 25 uM by luciferase reporter gene assay. Type of series: cell-based.
Series [14] concerns RAW264.7. As to the kind of experiment: Inhibition of LPS-induced NF-kappaB activation in mouse RAW264.7 cells expressing luciferase gene at 5 to 25 uM by luciferase reporter gene assay. Type of series: cell-based.
In series [15] the test system is RAW264.7. As to the kind of experiment: Antiinflammatory activity in mouse RAW264.7 cells assessed as inhibition of LPS-induced COX2 expression at 25 uM incubated for 24 hrs by Western blot analysis. It is filed as functional, cell-based.

With `C=C[C@]1(C)C=C2[C@@H](OC(C)=O)[C@@H](O)[C@H]3C(C)(C)CCC[C@]3(C)[C@@]2(O)CC1`, the results for the half-maximal inhibitory concentration (IC50) in the series on RAW264.7 [1] and in the series with RAW264.7 [8] were more than 100 µM and more than 50 µM, respectively. The inhibition at 50 µM in the series on RAW264.7 [2] amounted to 24.9%. Also, the viability at 50 µM in [3] came to 85.7%. Moreover, the viability at 10 µM in series [4] is 84.7%. Further, the inhibition at 10 µM with RAW264.7 [5] turned out to be 16.7%. For the same molecule, the inhibition at 100 µM in the series with RAW264.7 [6] stood at 47.5%. For the same molecule, the inhibition at 5 µM in the series with RAW264.7 [7] came to 21.4%. The viability at 5 µM in [9] is 89.3%. The viability at 100 µM in series [10] worked out at 70.3%.
Regarding `C=C[C@]1(C)C=C2[C@H](OC(C)=O)[C@@H](O)[C@H]3C(C)(C)CCC[C@]3(C)[C@H]2CC1`, the IC50 in the series with RAW264.7 [1] is 32.8 µM; with RAW264.7 [8], 32.6 µM. For the same molecule, in the series with RAW264.7 [2], the inhibition at 50 µM turned out to be 80.3%. For the same molecule, in series [3], the viability at 50 µM came out at 6.17%. Also, the viability at 10 µM in [4] turned out to be 107%. Also, in the series with RAW264.7 [5], the inhibition at 10 µM worked out at 9.88%. Also, the inhibition at 100 µM in the series with RAW264.7 [6] came out at 82.1%. Moreover, the inhibition at 5 µM with RAW264.7 [7] is -0.32%. In addition, the viability at 5 µM in series [9] is 100%. Moreover, in series [10], the viability at 100 µM is 3.73%.
Turning to `C=C[C@]1(C)C=C2[C@@H](O)[C@@H](O)[C@H]3C(C)(C)CCC[C@]3(C)[C@@]2(O)CC1`, the IC50 with RAW264.7 [1] is 48.4 µM; in the series with RAW264.7 [8], more than 50 µM. Besides, the inhibition at 50 µM in the series with RAW264.7 [2] turned out to be 51.4%. For the same molecule, the viability at 50 µM in [3] came out at 60.2%. In addition, in [4], the viability at 10 µM is 81.2%. Further, the inhibition at 10 µM in the series on RAW264.7 [5] is 16.9%. The inhibition at 100 µM in the series on RAW264.7 [6] came out at 60.4%. Besides, in the series on RAW264.7 [7], the inhibition at 5 µM stood at 5.03%. For the same molecule, the viability at 5 µM in series [9] was 140%. Also, the viability at 100 µM in series [10] came out at 22.1%.
`C=C[C@]1(C)C=C2C[C@@H](O)[C@H]3C(C)(C)CC[C@H](OC(C)=O)[C@]3(C)[C@H]2CC1`: the Activity result in the series with RAW264.7 [11] is recorded as “Non-Toxic”. For the same molecule, the IC50 in the series on RAW264.7 [1] was 36.1 µM. In addition, in the series on RAW264.7 [2], the inhibition at 50 µM was determined as 71.6%. The viability at 50 µM in series [3] turned out to be 60.3%. Besides, in series [4], the viability at 10 µM stood at 111%. The inhibition result in the series on RAW264.7 [12], in the series on RAW264.7 [13], with RAW264.7 [14] and in the series on RAW264.7 [15] was “Active” throughout. Besides, the inhibition at 10 µM in the series on RAW264.7 [5] was 9.55%. For the same molecule, in the series on RAW264.7 [6], the inhibition at 100 µM was 81.8%. Also, the inhibition at 5 µM in the series on RAW264.7 [7] was 15.2%. In series [9], the viability at 5 µM was 106%. In series [10], the viability at 100 µM is 3.39%.
Consider `C=C[C@]1(C)C=C2C[C@@H](O)[C@H]3C(C)(C)CCC[C@]3(C)[C@H]2CC1`, for which the Activity entry in the series on RAW264.7 [11] is given as “Non-Toxic”. Besides, the IC50 with RAW264.7 [1] amounted to 39.9 µM. In addition, the inhibition at 50 µM in the series on RAW264.7 [2] came out at 65.6%. Further, the viability at 50 µM in series [3] was found to be 109%. Moreover, the viability at 10 µM in series [4] was 149%. For the same molecule, the inhibition entry in the series on RAW264.7 [12], with RAW264.7 [13], with RAW264.7 [14] and with RAW264.7 [15] was “Active” throughout. In addition, in the series with RAW264.7 [5], the inhibition at 10 µM came to 3.82%. Moreover, the inhibition at 100 µM with RAW264.7 [6] is 81.7%. Moreover, the inhibition at 5 µM with RAW264.7 [7] was 9.97%. Besides, the viability at 5 µM in [9] came out at 98.7%. Moreover, the viability at 100 µM in series [10] worked out at 66.8%.
